What was measured:
[1] = target: PIK3CA (human) (UniProt P42336); test: Assessment of PIK3CA Kinase Activity Using One Step Solid Phase Assay
[2] = target: PIK3CA (human) (UniProt P42336); test: Assessment of PIK3CA Kinase Activity Using Homogenous Solution Phase Assay

Sequence of PIK3CA (human) (P42336 whole entry, looked up): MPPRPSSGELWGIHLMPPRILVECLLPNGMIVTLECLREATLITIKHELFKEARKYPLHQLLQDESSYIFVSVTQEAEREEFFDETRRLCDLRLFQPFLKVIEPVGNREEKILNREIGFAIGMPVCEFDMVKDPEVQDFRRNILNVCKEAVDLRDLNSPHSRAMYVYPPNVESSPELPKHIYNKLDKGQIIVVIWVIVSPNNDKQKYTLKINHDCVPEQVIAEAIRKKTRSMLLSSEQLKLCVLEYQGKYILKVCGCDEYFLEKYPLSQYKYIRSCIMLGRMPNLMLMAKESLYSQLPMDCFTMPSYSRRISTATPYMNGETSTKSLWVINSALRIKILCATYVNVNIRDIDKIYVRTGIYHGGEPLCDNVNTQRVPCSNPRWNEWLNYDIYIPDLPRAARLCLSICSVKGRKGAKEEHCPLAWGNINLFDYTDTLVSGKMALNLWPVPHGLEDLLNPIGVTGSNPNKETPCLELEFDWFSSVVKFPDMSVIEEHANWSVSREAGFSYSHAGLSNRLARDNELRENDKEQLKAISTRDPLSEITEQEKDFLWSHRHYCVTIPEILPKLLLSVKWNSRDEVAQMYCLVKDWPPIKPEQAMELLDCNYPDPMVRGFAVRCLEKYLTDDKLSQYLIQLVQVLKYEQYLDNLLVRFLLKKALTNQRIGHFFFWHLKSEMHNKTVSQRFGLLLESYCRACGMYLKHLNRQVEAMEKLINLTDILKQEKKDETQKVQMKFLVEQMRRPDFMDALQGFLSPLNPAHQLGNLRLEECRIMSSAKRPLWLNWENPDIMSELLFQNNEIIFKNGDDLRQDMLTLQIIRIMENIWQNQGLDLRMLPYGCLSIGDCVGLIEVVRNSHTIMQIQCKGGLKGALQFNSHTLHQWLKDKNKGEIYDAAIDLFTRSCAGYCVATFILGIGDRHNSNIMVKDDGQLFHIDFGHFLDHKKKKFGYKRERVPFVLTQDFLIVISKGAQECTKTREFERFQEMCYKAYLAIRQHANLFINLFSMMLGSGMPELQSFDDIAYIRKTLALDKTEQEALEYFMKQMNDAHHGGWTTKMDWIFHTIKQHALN

| IC50 [1] [µM] | IC50 [2] [µM] | Structure (SMILES) |
| --- | --- | --- |
| < 20 | – | COc1ccccc1Nc1cc(-c2cccc(O)c2)nc(N2CCOCC2)n1 |
| < 20 | – | Oc1cccc(-c2cc(NCCCn3ccnc3)nc(N3CCOCC3)n2)c1 |
| < 20 | < 20 | Oc1cccc(-c2cc(Nc3ccc(O)nc3)nc(N3CCOCC3)n2)c1 |
| – | < 20 | COc1ccc(Nc2cc(-c3cccc(O)c3)nc(N3CCOCC3)n2)cc1O |
| < 20 | – | CN1CCCN(c2cc(-c3cccc(O)c3)nc(N3CCOCC3)n2)CC1 |
| < 20 | – | Oc1cccc(-c2cc(N3CCN(c4cccc(Cl)c4)CC3)nc(N3CCOCC3)n2)c1 |
| – | < 20 | Oc1cccc(-c2cc(Nc3ccc(O)c(Cl)c3)nc(N3CCOCC3)n2)c1 |
| < 20 | – | CCOc1ccc(OCC)c(Nc2cc(-c3cccc(O)c3)nc(N3CCOCC3)n2)c1 |
| – | < 20 | COc1ccc(Nc2cc(-c3cccc(O)c3)nc(N3CCOCC3)n2)cc1OC |
| < 20 | – | Fc1ccccc1-c1cc(Nc2ccc3[nH]ncc3c2)nc(N2CCOCC2)n1 |
| < 20 | < 20 | Oc1cccc(-c2cc(N3CCN(c4ccccn4)CC3)nc(N3CCOCC3)n2)c1 |
| < 20 | < 20 | C[C@@H](Nc1cc(-c2cccc(O)c2)nc(N2CCOCC2)n1)c1ccccc1 |
| < 20 | – | Oc1cccc(-c2cc(NCCc3cccnc3)nc(N3CCOCC3)n2)c1 |
| – | < 20 | Oc1cccc(-c2cc(Nc3ccccn3)nc(N3CCOCC3)n2)c1 |
| < 20 | < 20 | CCC(CO)(CO)Nc1cc(-c2cccc(O)c2)nc(N2CCOCC2)n1 |
| < 20 | < 20 | Oc1cccc(-c2cc(NCCc3ccncc3)nc(N3CCOCC3)n2)c1 |
| – | < 20 | Nc1cc(-c2cccc(O)c2)nc(N2CCOCC2)n1 |
| < 20 | – | Oc1cccc(-c2cc(N3CCN(Cc4ccc5c(c4)OCO5)CC3)nc(N3CCOCC3)n2)c1 |
| < 20 | – | COc1ccc(OC)c(Nc2cc(-c3cccc(O)c3)nc(N3CCOCC3)n2)c1 |
| < 20 | < 20 | Cc1ccc(-c2cc(Nc3cccnc3)nc(N3CCOCC3)n2)cc1O |
| – | < 20 | Oc1cccc(-c2cc(Nc3ccc4c(c3)OCO4)nc(N3CCOCC3)n2)c1 |
| < 20 | < 20 | C[C@@H]1COC[C@H](C)N1c1cc(-c2cccc(O)c2)nc(N2CCOCC2)n1 |
| < 20 | – | Oc1cccc(-c2cc(Nc3cc(Cl)ccc3O)nc(N3CCOCC3)n2)c1 |
| < 20 | < 20 | COC(=O)Oc1cccc(-c2cc(Nc3cccnc3)nc(N3CCOCC3)n2)c1 |
| – | < 20 | Oc1cccc(-c2cc(Nc3ccc4cn[nH]c4c3)nc(N3CCOCC3)n2)c1 |

| IC50 [1] [µM] | IC50 [2] [µM] | Structure (SMILES) |
| --- | --- | --- |
| < 20 | – | Oc1cccc(-c2cc(N3CCN(CCc4ccccc4)CC3)nc(N3CCOCC3)n2)c1 |
| < 20 | – | CCCCOc1ccc(Nc2cc(-c3cccc(O)c3)nc(N3CCOCC3)n2)cc1 |
| – | < 20 | COc1ccc(Nc2cc(-c3cccc(O)c3)nc(N3CCOCC3)n2)cc1F |
| < 20 | < 20 | CCOc1ccc(NC(C)=O)cc1Nc1cc(-c2cccc(O)c2)nc(N2CCOCC2)n1 |
| < 20 | – | COc1c(Nc2cc(-c3cccc(O)c3)nc(N3CCOCC3)n2)ccc2c1oc1ccccc12 |
| < 20 | – | Oc1cccc(-c2cc(Nc3ccc4c(c3)OCCCO4)nc(N3CCOCC3)n2)c1 |
| < 20 | < 20 | COc1cccc(N2CCN(c3cc(-c4cccc(O)c4)nc(N4CCOCC4)n3)CC2)c1 |
| – | < 20 | Oc1cccc(-c2cc(Nc3ccc4c(c3)CCC4)nc(N3CCOCC3)n2)c1 |
| – | < 20 | Oc1cccc(-c2cc(Nc3ccc4ncccc4c3)nc(N3CCOCC3)n2)c1 |
| < 20 | – | NC1CCCC(Nc2cc(-c3cccc(O)c3)nc(N3CCOCC3)n2)C1 (stereo unspecified) |
| < 20 | – | COc1cccc(-c2nc(N3CCOCC3)nc(Nc3cccnc3)c2C(=O)O)c1 |
| < 20 | – | Oc1cccc(-c2cc(N3CCC(O)CC3)nc(N3CCOCC3)n2)c1 |
| < 20 | – | Oc1cccc(-c2cc(Nc3ccccc3O)nc(N3CCOCC3)n2)c1 |
| < 20 | – | Cc1ccc(CN(Cc2cccnc2)c2cc(-c3cccc(O)c3)nc(N3CCOCC3)n2)cc1 |
| < 20 | – | CCOc1ccc(Nc2cc(-c3cccc(O)c3)nc(N3CCOCC3)n2)cc1 |
| – | < 20 | Oc1cccc(-c2cc(Nc3ccc4c(c3)OCCO4)nc(N3CCOCC3)n2)c1 |
| < 20 | < 20 | CC(C)(C)C(=O)Oc1cccc(-c2cc(Nc3cccnc3)nc(N3CCOCC3)n2)c1 |
| < 20 | – | COc1ccc(Nc2cc(-c3cccc(O)c3)nc(N3CCOCC3)n2)cc1OC1CCCC1 |
| < 20 | < 20 | Oc1cccc(-c2cc(Nc3ncccn3)nc(N3CCOCC3)n2)c1 |
| < 20 | < 20 | c1cc(OCCN2CCCCC2)cc(-c2cc(Nc3ccc4[nH]ncc4c3)nc(N3CCOCC3)n2)c1 |
| < 20 | – | O=C(CN1CCN(c2cc(-c3cccc(O)c3)nc(N3CCOCC3)n2)CC1)N1CCOCC1 |
| < 20 | < 20 | CS(=O)(=O)Nc1cccc(-c2cc(Nc3cccnc3)nc(N3CCOCC3)n2)c1 |
| – | < 20 | Oc1cccc(-c2cc(Nc3cccc4cnccc34)nc(N3CCOCC3)n2)c1 |
| < 20 | – | Oc1cccc(-c2cc(Nc3cccc(Oc4ccccc4)c3)nc(N3CCOCC3)n2)c1 |
| < 20 | – | COc1cccc(Nc2cc(-c3cccc(O)c3)nc(N3CCOCC3)n2)c1 |

| IC50 [1] [µM] | IC50 [2] [µM] | Structure (SMILES) |
| --- | --- | --- |
| – | < 20 | Oc1cccc(-c2cc(Nc3ccc4c(c3)NCC4)nc(N3CCOCC3)n2)c1 |
| < 20 | < 20 | CC(=O)Oc1cccc(-c2cc(Nc3cccnc3)nc(N3CCOCC3)n2)c1 |
| < 20 | – | COc1ccc(Nc2cc(-c3ccccc3)nc(N3CCOCC3)n2)cc1O |
| – | < 20 | Oc1cccc(-c2cc(Nc3ccc4[nH]ncc4c3)nc(N3CCCNCC3)n2)c1 |
| – | < 20 | CC(=O)N1CCc2ccc(Nc3cc(-c4cccc(O)c4)nc(N4CCOCC4)n3)cc21 |
| < 20 | < 20 | Oc1cccc(-c2cc(NCc3ccccn3)nc(N3CCOCC3)n2)c1 |
| < 20 | < 20 | Nc1cccc(-c2cc(Nc3cccnc3)nc(N3CCOCC3)n2)c1 |
| < 20 | – | COc1cc(Nc2ccccc2)ccc1Nc1cc(-c2cccc(O)c2)nc(N2CCOCC2)n1 |
| – | < 20 | COc1cccc(-c2cc(Nc3cccnc3)nc(N3CCOCC3)n2)c1 |
| < 20 | – | CCn1c(C)nc2cc(Nc3cc(-c4cccc(O)c4)nc(N4CCOCC4)n3)ccc21 |
| < 20 | – | Cc1ccc(CN(Cc2ccccn2)c2cc(-c3cccc(O)c3)nc(N3CCOCC3)n2)cc1 |
| – | < 20 | COc1ccc(Nc2cc(-c3cccc(O)c3)nc(N3CCOCC3)n2)cc1Cl |
| < 20 | < 20 | O=[N+]([O-])c1ccc(N2CCN(c3cc(-c4cccc(O)c4)nc(N4CCOCC4)n3)CC2)cc1 |
| < 20 | < 20 | CCCC(=O)Oc1cccc(-c2cc(Nc3cccnc3)nc(N3CCOCC3)n2)c1 |
| – | < 20 | COc1cc(Nc2cc(-c3cccc(O)c3)nc(N3CCOCC3)n2)cc(OC)c1OC |
| < 20 | < 20 | COCCNc1cc(-c2cccc(O)c2)nc(N2CCOCC2)n1 |
| < 20 | < 20 | CC(C)C(N)C(=O)Oc1cccc(-c2cc(Nc3cccnc3)nc(N3CCOCC3)n2)c1 (stereo unspecified) |
| < 20 | – | COc1cccc(Nc2cc(-c3cccc(O)c3)nc(N3CCOCC3)n2)c1OC |
| – | < 20 | OCC1CCCN1c1cc(-c2cccc(O)c2)nc(N2CCOCC2)n1 (stereo unspecified) |
| – | < 20 | Fc1cccc(-c2cc(Nc3cccnc3)nc(N3CCOCC3)n2)c1 |
| < 20 | – | Oc1cccc(-c2cc(Nc3cc(-c4ccccc4)ccc3O)nc(N3CCOCC3)n2)c1 |
| < 20 | – | Oc1ccc(Nc2cc(-c3cccc(O)c3)nc(N3CCOCC3)n2)cc1 |
| – | < 20 | Cc1ccc(Nc2cc(-c3cccc(O)c3)nc(N3CCOCC3)n2)cc1C |
| < 20 | – | Oc1cccc(-c2cc(NCCc3ccccn3)nc(N3CCOCC3)n2)c1 |
| – | < 20 | Oc1cccc(-c2cc(Nc3ccc4nc[nH]c4c3)nc(N3CCOCC3)n2)c1 |

| IC50 [1] [µM] | IC50 [2] [µM] | Structure (SMILES) |
| --- | --- | --- |
| – | < 20 | Cc1ccc(O)cc1-c1cc(Nc2cccnc2)nc(N2CCOCC2)n1 |
| – | < 20 | O=c1[nH]c2ccc(Nc3cc(-c4cccc(O)c4)nc(N4CCOCC4)n3)cc2[nH]1 |
| < 20 | < 20 | Oc1ccc(F)c(-c2cc(Nc3cccnc3)nc(N3CCOCC3)n2)c1 |
| – | < 20 | Oc1cccc(-c2cc(Nc3ccc4[nH]ncc4c3)nc(N3CCCCCC3)n2)c1 |
| < 20 | < 20 | Oc1ccc(Br)c(-c2cc(Nc3cccnc3)nc(N3CCOCC3)n2)c1 |
| < 20 | – | CCOc1ccccc1Nc1cc(-c2cccc(O)c2)nc(N2CCOCC2)n1 |
| < 20 | < 20 | Oc1cccc(-c2cc(Nc3ccc4nn[nH]c4c3)nc(N3CCOCC3)n2)c1 |
| < 20 | – | Oc1cccc(-c2cc(Nc3cccc(OCc4ccccc4)c3)nc(N3CCOCC3)n2)c1 |
| < 20 | – | COc1cccc(C)c1Nc1cc(-c2cccc(O)c2)nc(N2CCOCC2)n1 |
| < 20 | < 20 | Oc1cccc(-c2cc(NCc3ccncc3)nc(N3CCOCC3)n2)c1 |
| < 20 | < 20 | Oc1cccc(-c2cc(Nc3cccnc3)nc(N3CCOCC3)n2)c1F |
| – | < 20 | Oc1cccc(-c2cc(N(Cc3ccccc3)Cc3nccs3)nc(N3CCOCC3)n2)c1 |
| < 20 | – | Oc1cccc(-c2cc(Nc3ccc(Oc4ccccc4)cc3)nc(N3CCOCC3)n2)c1 |
| < 20 | < 20 | Oc1cccc(-c2cc(N3CCCNCC3)nc(N3CCOCC3)n2)c1 |
| < 20 | – | N[C@@H]1CCCC[C@H]1Nc1cc(-c2cccc(O)c2)nc(N2CCOCC2)n1 |
| < 20 | – | COc1ccc(Nc2cc(-c3cccc(O)c3)nc(N3CCOCC3)n2)c(OC)c1 |
| < 20 | < 20 | CC(C)C(=O)Oc1cccc(-c2cc(Nc3cccnc3)nc(N3CCOCC3)n2)c1 |
| – | < 20 | Oc1cccc(-c2cc(Nc3ccc4c(c3)Cc3ccccc3-4)nc(N3CCOCC3)n2)c1 |
| – | < 20 | FC(F)(F)c1cccc(-c2cc(Nc3cccnc3)nc(N3CCOCC3)n2)c1 |
| – | < 20 | O=[N+]([O-])c1cc(Nc2cc(-c3cccc(O)c3)nc(N3CCOCC3)n2)ccc1O |
| – | < 20 | Oc1cccc(-c2cc(Nc3cnccn3)nc(N3CCOCC3)n2)c1 |
| < 20 | – | Oc1cccc(-c2cc(N(Cc3ccccc3)Cc3ccccc3)nc(N3CCOCC3)n2)c1 |
| < 20 | – | Oc1cccc(Nc2cc(-c3cccc(O)c3)nc(N3CCOCC3)n2)c1 |

From the Kinase Knowledgebase extract (Sharma et al. 2016)
